Experimental data as given in patent EP1311486B1, “USES OF THALIPORPHINE OR ITS DERIVATIVES IN TREATMENT OF CARDIAC DISEASES AND PREPARATION OF SAME” (Lotus Pharmaceutical Co., Ltd., priority 2000, dated 2002).

Legend:
[1] = test system: transient outward potassium current (Ito); assay: Inhibition of transient outward potassium current; settings: rats
Experimental: Moreover, 3-10µM THP prolongs the action potential duration in the atria or ventricles of both rats and guinea pigs (data not shown).

inward sodium current = settings: Su MJ, et al., Eur. J. Pharmacol., 1994; cited from earlier work
AV node conduction = assay: His bundle electrogram of isolated heart, Langendorff perfusion, atrial pacing at 300 ms cycle length; parameters: species or system rats and guinea pigs; settings: for atrial effective refractory period (AERP): before drug THP 60 ms, quinidine 40 ms; for ventricular effective refractory period (VERP): before drug THP 160 ms, quinidine 180 ms; for AV node effective refractory period (AVNERP): before drug THP 170 ms, quinidine 130 ms; for wenckbach cycle length (WCL): before drug THP 200 ms, quinidine 150 ms
Experimental: The investigation conforms to the Guide for the Care and Use of Laboratory Animals published by the US National Institutes of Health (NIH publication No. 85-23, revised 1996). Adult rats and guinea pigs were killed after hepariniation and anesthetization with urethane (1.25 g/kg i.p.). After isolating the heart, the aorta was perfused with 10µM quinidine and THP, respectively, by Langendorff perfusion. A pair of bipolar electrodes connected with silver wire were placed on the tip of the Triangle of Koch to record the His bundle electrogram. In addition, another pair of bipolar electrodes connected with silver wire were placed on the surface of the right ventricle to record T wave. […] The QT interval, conduction time through the sinoatrial (SA interval), the atrioventricular node (AH interval) and His-purkinje system (HV interval) were recorded, respectively, using electrocardiograph. Similarly, the recovery curve of His-purkinje system (i.e. the relationship of H2V2 and V1H2), atrial and ventricular refractory period and AV node refractory period were also recorded in the same manner. 1 and 2.
The SA, AH, HV intervals and T wave are prolonged in the quinidine-treated heart (FIG. 1). […] In addition, 3, 10 and 30µM THP can prolong the atrial effective refractory period (AERP) from 60 ms to 90, 100 and 120 ms, respectively; the ventricular effective refractory period (VERP) from 160 ms to 160, 170 and 190 ms, respectively; and the AV node effective refractory period (AVNERP) from 170 ms to 170, 200 and 240 ms, respectively. When compared with THP in the same manner, 3,10 and 30µM quinidine can prolong the AERP from 40 ms to 60, 80 and 130 ms; the VERP from 180 ms to 170, 180 and 190 ms; and the AVNERP from 130 ms to 150, 200 and 245 ms, respectively. Further, 3, 10 and 30µM THP can change the wenckbach cycle length (WCL) from 200 ms to 210, 230 and 280 ms, respectively; whereas 3, 10 and 30µM quinidine can change the WCL from 150 ms to 170, 210 and 300 ms, respectively. Both THP and quinidine prolong AERP, VERP and AVNERP, however, only quinidine inhibits conduction in AV node (prolonged AH interval). In contrast, even when the THP concentration raised to 10µM, the conduction in AV node is not inhibited.

[2] = test system: Human low density lipoprotein (LDL); assay: Copper-induced lipid peroxidation of LDL (TBARS formation); type: biochemical; settings: LDL 100µg/ml, 37°C, CuSO4 12 hours
Experimental: Human low density lipoprotein (LDL, 100µg/ml) was preincubated with DMSO (0.1%, basal and control) or various concentrations of THP at 37°C for 10 minutes, and then CuSO4 was added, except for basal, and incubated for another 12 hours to determine the impact of THP on lipid peroxidation.
The impact of THP on lipid peroxidation is further assessed by evaluating its effect on the formation of TBARS (thiobarbituric acid-reactive substance) from LDL. Exposure of LDL to CuSO4 within 12 hours results in the peroxidation of LDL, as indicated by the increased content of TBARS (FIG. 3).

SMILES: COc1cc2c(cc1OC)-c1c(O)c(OC)cc3c1C(C2)N(C)CC3 (single isomer, unassigned; (+)) [THP, (+)-Thaliporphine]
- transient outward potassium current (Ito) [1]: markedly inhibit
- inward sodium current (inward sodium current): inhibit
- atrial effective refractory period (AERP) (AV node conduction; 3µM): 90 ms
- ventricular effective refractory period (VERP) (AV node conduction; 3µM): 160 ms
- AV node effective refractory period (AVNERP) (AV node conduction; 3µM): 170 ms
- wenckbach cycle length (WCL) (AV node conduction; 3µM): 210 ms
- AH interval (conduction in AV node) (AV node conduction; 10µM, isolated perfused heart): not inhibited
- HV interval (AV node conduction; 10µM, isolated perfused heart): prolonged slightly
- SA interval (AV node conduction; 10µM, isolated perfused heart): remains unaffected
- atrial effective refractory period (AERP) (AV node conduction; 10µM): 100 ms
- ventricular effective refractory period (VERP) (AV node conduction; 10µM): 170 ms
- AV node effective refractory period (AVNERP) (AV node conduction; 10µM): 200 ms
- wenckbach cycle length (WCL) (AV node conduction; 10µM): 230 ms
- atrial effective refractory period (AERP) (AV node conduction; 30µM): 120 ms
- ventricular effective refractory period (VERP) (AV node conduction; 30µM): 190 ms
- AV node effective refractory period (AVNERP) (AV node conduction; 30µM): 240 ms
- wenckbach cycle length (WCL) (AV node conduction; 30µM): 280 ms
- IC50 [2]: 15.7 µM
